{"source": "patent US10799467B2", "about": "“Use of the phytocannabinoid cannabidivarin (CBDV) in the treatment of epilepsy” (GW Pharma Limited, priority 2010, dated 2020)", "key": {"[1]": {"conditions": "cited from earlier work"}, "[2]": {"tested_on": "pilocarpine-induced seizures", "assay": "CBDV with standard anti-epileptic drugs in the pilocarpine model of epilepsy", "format": "in vivo", "conditions": "CBDV 200 mg/kg with valproate at various doses", "from_the_text": "These two drugs are representative of two classes of anti-convulsants which have different mechanisms of action."}, "[3]": {"tested_on": "PTZ-induced seizures", "assay": "CBDV with standard anti-epileptic drugs in the PTZ model of generalised seizures", "format": "in vivo, Wistar rats", "conditions": "valproate (varying doses) co-administered with CBDV 200 mg/kg", "procedure": "As described in Example 2 above. Varying doses of the SAED's ethosuximide and valproate were tested in combination to isolated CBDV at a dose of 200 mg/kg."}, "[4]": {"tested_on": "MES-induced seizure", "assay": "Maximal electroshock seizure (MES) model of epilepsy", "format": "in vivo, Mouse/ICR", "procedure": "The vehicle used in this study was 2:1:17 (ethanol:Cremophor:0.9% ^w/v, NaCl). The test compounds used were cannabidiol (CBD) and cannabidivarin (CBDV). These were made to a solution at the highest concentration; these were then dissolved in ethanol before combination with Cremophor and 0.9% NaCl in the proportion described above. The CBD or CBDV were administered intraperitoneally at a volume of 10 ml/kg body weight. The SAED valproic acid (VBA) was dissolved in saline.\nAnimal Species/Strain: Mouse/ICR, Microbiological grade: SPF, Supplier: SLC Japan, Inc. […] Temperature: 23±2° C., Humidity: 60±10%, Light conditions: 7 AM to 7 PM for the light period, 7 PM to 7 AM for the dark period. Chow and water: Free access to CRF-1 (Oriental Yeast Co, Ltd) and tap water.\nOne day before each experiment, mice were weighed and randomized into several groups in each test. On the morning of the experiment day, body weight was measured in order to calculate the administration volume of each animal. Vehicle, CBD, CBDV or valproic acid sodium salt was interperitoneally administered 30 minutes before electric stimuli. Maximal electroshock seizures (MES) in mice was induced by a stimulator (UGO BASILE ECT UNIT 7801, Italia) using a current of 30 mA delivered with a pulse frequency of 100 Hz for 200 msec through earlap electrodes.\nAll statistical analyses were performed using SAS Software for Windows, Release 9.1 (SAS Institute Japan). The difference of the number (hindlimb extension or deaths) in each group was assessed using two-tailed Fisher's exact test."}, "[5]": {"target": "CB1 receptor (Homo sapiens, UniProt P21554)", "sequence (P21554 whole entry)": "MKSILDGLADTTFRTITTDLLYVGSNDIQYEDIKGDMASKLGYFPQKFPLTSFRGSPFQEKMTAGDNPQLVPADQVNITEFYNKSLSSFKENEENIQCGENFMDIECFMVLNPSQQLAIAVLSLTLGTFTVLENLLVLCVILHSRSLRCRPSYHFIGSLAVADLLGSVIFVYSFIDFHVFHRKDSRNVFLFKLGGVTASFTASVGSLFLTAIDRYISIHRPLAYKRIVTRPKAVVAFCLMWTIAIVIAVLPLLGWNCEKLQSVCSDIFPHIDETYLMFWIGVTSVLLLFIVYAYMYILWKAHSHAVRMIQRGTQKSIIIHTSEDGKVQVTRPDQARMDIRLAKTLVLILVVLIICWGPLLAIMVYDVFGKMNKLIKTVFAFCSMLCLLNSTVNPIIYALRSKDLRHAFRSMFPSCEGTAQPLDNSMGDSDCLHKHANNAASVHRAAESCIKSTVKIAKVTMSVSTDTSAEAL", "conditions": "cited from earlier work"}, "[6]": {"tested_on": "PTZ-induced seizures", "assay": "PTZ model of generalised seizures (80 mg/kg PTZ)", "format": "in vivo, Wistar rats", "conditions": "for Median severity: vehicle 4.25; for % no seizure: vehicle 12.5; for mortality rate: vehicle 44%, not significant", "procedure": "Male Wistar rats (P24-29; 75-110 g) were used to assess the effects of the phytocannabinoid CBDV in the PTZ model of generalised seizures. Animals were habituated to the test environment, cages, injection protocol and handling prior to experimentation. Animals were housed in a room at 21° C. on a 12 hour light: dark cycle (lights on 0900) in 50% humidity, with free access to food and water.\nFive 6 L Perspex tanks with lids were placed on a single bench with dividers between them. Closed-circuit television (CCTV) cameras were mounted onto the dividers to observe rat behaviour. Sony Topica CCD cameras (Bluecherry, USA) were linked via BNC cables to a low-noise PC via Brooktree digital capture cards (Bluecherry, USA). Zoneminder (http://www.zoneminder.com) software was used to monitor rats, start and end recordings and manage video files. In-house Linux scripts were used to encode video files into a suitable format for further offline analysis using The Observer (Noldus Technologies).\nA range of doses of PTZ (50-100 mg/kg body weight) were used to determine the best dose for induction of seizures (see below). As a result, a dose of 80 mg/kg injected intra-peritoneally (IP; stock solution 50 mg/ml in 0.9% saline) were used to screen the CBDV.\nOn the day of testing, pure CBDV was administered via intra-peritoneal (i.p.) injection at doses of 50, 100 and 200 mg/kg alongside animals that were injected with a matched volume of the cannabinoid vehicle (2:1:17 ethanol:Cremophor: 0.9% w/v NaCl solution), which served as the negative control group. Animals were then observed for 1 hour, after which time they received an IP injection of 80 mg/kg PTZ. Negative vehicle controls were performed in parallel with cannabinoid-dosed subjects. After receiving a dose of PTZ, animals were observed and videoed to determine the severity of seizure and latency to several seizure behaviour types (see in vivo analysis, below). Animals were filmed for half an hour after last sign of seizure, and then returned to their cage.\nAnimals were observed during experimental procedures, but all analysis was performed offline on recorded video files using The Observer behavioural analysis software (Noldus, Netherlands). A seizure severity scoring system was used to determine the levels of seizure experienced by subjects (Pohl & Mares, 1987). All signs of seizure were detailed for all animals.\nThe latency (in seconds) from injection of PTZ to first myoclonic jerk (FMJ; score of 1), and to the animal attaining “forelimb clonus with tonic component and body twist” (score of 3.5) were recorded. FMJ is an indicator of the onset of seizure activity, whilst >90% of animals developed scores of 3.5, and so is a good marker of the development of more severe seizures. Data are presented as the mean±S.E.M. within an experimental group.\nThis is given as the median value for each experimental group based on the scoring scale below.\nThe percentage of animals within an experimental group that died as a result of PTZ-induced seizures. Note that the majority of animals that developed tonic-clonic seizures (scores of 4 and 5) died as a result, and that a score of 6 (death) automatically denotes that the animal also experienced tonic-clonic seizures.\nThis is given as the mean±S.E.M. for each experimental group.\nFor measures of latency and severity, one way analysis of variance (ANOVA) was performed on the four groups together (vehicle and 50, 100 and 200 mg/kg CBDV) to detect overall effects of CBDV (p≤0.05 considered significant).\nSignificant ANOVA results were followed by post hoc tests to test differences between vehicle and drug groups (Tukey's test, p≤0.05 considered significant).\nMethodology as described in Example 2.\nGeneral methodology is as described in Example 2.\nThree doses of THCV BDS were assessed against a concentration of PTZ known to induce moderate seizures in rats (70 mg/kg; see pilot, above). […]"}, "[7]": {"tested_on": "seizures", "conditions": "THC administered to 5 institutionalized children not responding to phenobarbital and phenytoin; cited from earlier work"}, "[8]": {"tested_on": "grand mal seizures", "conditions": "200-300 mg of cannabidiol plus regular medication; Cunha et al (1980); cited from earlier work"}, "[9]": {"target": "CB2 receptor (Homo sapiens, UniProt P34972)", "sequence (P34972 whole entry)": "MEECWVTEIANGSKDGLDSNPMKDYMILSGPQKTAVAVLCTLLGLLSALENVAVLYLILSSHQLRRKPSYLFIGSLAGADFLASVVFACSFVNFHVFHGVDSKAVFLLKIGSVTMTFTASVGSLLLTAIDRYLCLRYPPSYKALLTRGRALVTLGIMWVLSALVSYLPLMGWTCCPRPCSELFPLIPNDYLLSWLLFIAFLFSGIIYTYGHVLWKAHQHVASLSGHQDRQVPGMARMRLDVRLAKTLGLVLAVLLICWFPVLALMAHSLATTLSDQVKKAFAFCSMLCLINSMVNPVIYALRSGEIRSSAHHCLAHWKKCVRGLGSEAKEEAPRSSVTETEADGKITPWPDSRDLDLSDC", "conditions": "WO 2007/138322; cited from earlier work"}, "[10]": {"tested_on": "seizure frequency", "conditions": "900-1200 mg of cannabidiol a day for 10 months; single patient; cited from earlier work"}, "[11]": {"tested_on": "seizure frequency", "conditions": "200-300 mg of cannabidiol per day in addition to standard antiepileptic drugs; 12 patients; cited from earlier work"}, "[12]": {"conditions": "rats; WO 2007/138322; cited from earlier work"}, "[13]": {"conditions": "rats at doses greater than 200 mg/kg"}}, "note": "Like-named read-outs stand apart in the source and are kept apart here. Marks after values point to notes of the source that are not given here."}
{"smiles": "CCC1(C)CC(=O)NC1=O", "note": "(stereo not drawn) [ethosuximide]", "values": [{"measurement": "motor and other side effects", "setting": "[1]; [13]", "result": "notable motor and other side effects (including sedation)"}]}
{"smiles": "CCCC(CCC)C(=O)O", "note": "[Valproic acid, valproic acid, reference compound]", "values": [{"measurement": "mortality (independent effect)", "setting": "[2]", "result": "only CBDV and not valproate independently caused a significant decrease"}, {"measurement": "seizure severity (independent effect)", "setting": "[2]", "result": "independent and positive effects"}, {"measurement": "mortality (independent effect when co-administered)", "setting": "[3]", "result": "significant decreases"}, {"measurement": "onset latency (independent effect when co-administered)", "setting": "[3]", "result": "significant decreases"}, {"measurement": "seizure severity (independent effect when co-administered)", "setting": "[3]", "result": "significant decreases"}, {"measurement": "Incidence of Tonic convulsion", "setting": "[4]; 200 mg/kg i.p., Table 10.2, 10 mice per group, vehicle 9/10", "result": "5/10"}, {"measurement": "Incidence of Tonic convulsion", "setting": "[4]; 350 mg/kg i.p., Table 10.1, 5 mice per group, vehicle 5/5", "result": "0/5**"}, {"measurement": "Incidence of Tonic convulsion", "setting": "[4]; 350 mg/kg i.p., Table 10.2, 10 mice per group, vehicle 9/10", "result": "1/10**"}, {"measurement": "hindlimb extension vs vehicle group", "setting": "[4]; 350 mg/kg valproic acid, statistically significant", "result": "blocked"}, {"measurement": "motor and other side effects", "setting": "[1]; [13]", "result": "notable motor and other side effects (including sedation)"}]}
{"smiles": "CCCc1cc(O)c2c(c1)OC(C)(C)[C@@H]1CCC(C)=C[C@@H]21", "note": "[THCV, tetrahydrocannabivarin]", "values": [{"measurement": "activity at the CB1 receptor", "setting": "[5]", "result": "antagonist"}, {"measurement": "Median severity", "setting": "[6]; 0.025 mg/kg THCV, 80 mg/kg PTZ", "result": 3.5}, {"measurement": "% no seizure", "setting": "[6]; 0.025 mg/kg THCV, 80 mg/kg PTZ", "result": 5.9, "unit": "%"}, {"measurement": "Median severity", "setting": "[6]; 0.25 mg/kg THCV, 80 mg/kg PTZ", "result": 3.5}, {"measurement": "% no seizure", "setting": "[6]; 0.25 mg/kg THCV, 80 mg/kg PTZ", "result": 33.3, "unit": "%"}, {"measurement": "Median severity", "setting": "[6]; 2.5 mg/kg THCV, 80 mg/kg PTZ", "result": 3.5}, {"measurement": "% no seizure", "setting": "[6]; 2.5 mg/kg THCV, 80 mg/kg PTZ", "result": 18.8, "unit": "%"}, {"measurement": "mortality rate", "setting": "[6]; high (2.5 mg/kg) pure THCV, 80 mg/kg PTZ", "result": 38, "unit": "%"}, {"measurement": "latency to score of [5] vs vehicle", "setting": "[6]; highest dose of THCV (2.5 mg/kg), 80 mg/kg PTZ, p=0.013", "result": "increased latencies, reaching a significant level"}, {"measurement": "latency to score of [3] vs vehicle", "setting": "[6]; highest dose of THCV (2.5 mg/kg), 80 mg/kg PTZ, p=0.017", "result": "increased latencies, reaching a significant level"}, {"measurement": "latency to first manifestation of seizure-like behaviour vs vehicle", "setting": "[6]; highest dose of THCV (2.5 mg/kg), 80 mg/kg PTZ, p=0.02", "result": "delay of onset was significant"}, {"measurement": "mortality rate", "setting": "[6]; low (0.025 mg/kg) pure THCV, 80 mg/kg PTZ", "result": 41, "unit": "%"}, {"measurement": "mortality rate", "setting": "[6]; medium (0.25 mg/kg) pure THCV, 80 mg/kg PTZ", "result": 33, "unit": "%"}, {"measurement": "duration of PTZ-induced seizures in animals that survived vs vehicle", "setting": "[6]; medium dose of THCV (0.25 mg/kg), 80 mg/kg PTZ, p=0.03", "result": "significantly shorter"}]}
{"smiles": "CCC1(c2ccccc2)C(=O)NC(=O)NC1=O", "note": "[phenobarbital]", "values": [{"measurement": "motor and other side effects", "setting": "[1]; rat models of epilepsy at doses greater than 250 mg/kg", "result": "notable motor and other side effects (including sedation)"}]}
{"smiles": "CCCCCc1cc(O)c2c(c1)OC(C)(C)[C@@H]1CCC(C)=C[C@@H]21", "note": "[THC, tetrahydrocannabinol]", "values": [{"measurement": "seizure outcome in 5 children", "setting": "[7]", "result": "One became entirely free of seizures, one became almost completely free of seizures, and the other three did no worse than before"}]}
{"smiles": "C=C(C)[C@@H]1CCC(C)=C[C@H]1c1c(O)cc(CCCCC)cc1O", "note": "[CBD, cannabidiol]", "values": [{"measurement": "patients who remained unchanged", "setting": "[8]", "result": 1}, {"measurement": "patients who showed complete improvement", "setting": "[8]", "result": 3}, {"measurement": "patients who showed minor improvement", "setting": "[8]", "result": 2}, {"measurement": "patients who showed partial improvement", "setting": "[8]", "result": 2}, {"measurement": "unwanted effect", "setting": "[8]", "result": "mild sedation"}, {"measurement": "activity at the CB1 receptor", "setting": "[5]", "result": "inverse agonists"}, {"measurement": "animals that died", "setting": "[6]; 100 mg/kg CBD IP 60 minutes before 80 mg/kg PTZ, vehicle 46.7%, p<0.001", "result": 6.7, "unit": "%"}, {"measurement": "animals that experienced the most severe seizures (score of 5)", "setting": "[6]; 100 mg/kg CBD IP, 80 mg/kg PTZ, vehicle 53.3%, p<0.001", "result": 6.7, "unit": "%"}, {"measurement": "latency of seizure development", "setting": "[6]; CBD 1, 10 and 100 mg/kg IP, 80 mg/kg PTZ", "result": "no significant increases"}, {"measurement": "activity at the CB2 receptor", "setting": "[9]", "result": "inverse agonists"}, {"measurement": "Incidence of Tonic convulsion", "setting": "[4]; 3 mg/kg i.p., Table 10.1, 5 mice per group, vehicle 5/5", "result": "3/5"}, {"measurement": "Incidence of Tonic convulsion", "setting": "[4]; 10 mg/kg i.p., Table 10.1, 5 mice per group, vehicle 5/5", "result": "4/5"}, {"measurement": "Incidence of Tonic convulsion", "setting": "[4]; 30 mg/kg i.p., Table 10.1, 5 mice per group, vehicle 5/5", "result": "3/5"}, {"measurement": "Incidence of Tonic convulsion", "setting": "[4]; 100 mg/kg i.p., Table 10.1, 5 mice per group, vehicle 5/5", "result": "4/5"}, {"measurement": "inhibition of the expression of hindlimb extension with statistical significance", "setting": "[4]; CBD 3-100 mg·kg IP", "result": "not able to inhibit"}, {"measurement": "seizure frequency", "setting": "[10]", "result": "markedly reduced"}, {"measurement": "improvement in seizure frequency", "setting": "[11]", "result": "no significant improvement"}, {"measurement": "bodyweight", "setting": "[12]", "result": "reduced"}]}
